Experimental data taken from ChEMBL document CHEMBL1909046, “DrugMatrix in vitro pharmacology data”.

What was measured:
[1] = target: Aldo-keto reductase family 1 member B1 (Rattus norvegicus, UniProt P07943); assay type: tissue-based, Lens of camera-type eye;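 further: inhibition of aldose reductase enzyme activity, measured with DL-glyceraldehyde as the substrate; in other assays of this panel Not Active means under 50% inhibition at 10 µM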
[2] = target: T1, Type-2 angiotensin II receptor (Homo sapiens, UniProt P50052); assay type: cell-based; details: cho-k1; further: in other assays of this panel Not Active means under 50% inhibition at 10 µM
T1 sequence (P50052 whole entry): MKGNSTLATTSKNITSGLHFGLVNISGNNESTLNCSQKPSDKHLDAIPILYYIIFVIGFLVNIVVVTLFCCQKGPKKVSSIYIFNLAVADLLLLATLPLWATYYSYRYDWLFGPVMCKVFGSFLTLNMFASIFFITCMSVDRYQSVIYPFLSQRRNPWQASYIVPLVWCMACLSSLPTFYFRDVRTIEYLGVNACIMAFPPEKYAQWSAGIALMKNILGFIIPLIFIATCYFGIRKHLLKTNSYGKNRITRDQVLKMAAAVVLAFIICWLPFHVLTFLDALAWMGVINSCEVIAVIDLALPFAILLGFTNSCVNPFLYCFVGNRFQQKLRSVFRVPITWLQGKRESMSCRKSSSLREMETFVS

[3] = DRUGMATRIX: Sigma2 radioligand binding (ligand: [3H] Ifenprodil); assay type: cell membranes, Rattus norvegicus, Wistar, Brain, Membrane; details: Not Active = under 50% inhibition at 10 µM
B2 bradykinin receptor = target: T2, B2 bradykinin receptor (Homo sapiens, UniProt P30411); assay type: cell membranes, Membrane; details: chem-1; further: in other assays of this panel Not Active means under 50% inhibition at 10 µM
T2 sequence (P30411 whole entry): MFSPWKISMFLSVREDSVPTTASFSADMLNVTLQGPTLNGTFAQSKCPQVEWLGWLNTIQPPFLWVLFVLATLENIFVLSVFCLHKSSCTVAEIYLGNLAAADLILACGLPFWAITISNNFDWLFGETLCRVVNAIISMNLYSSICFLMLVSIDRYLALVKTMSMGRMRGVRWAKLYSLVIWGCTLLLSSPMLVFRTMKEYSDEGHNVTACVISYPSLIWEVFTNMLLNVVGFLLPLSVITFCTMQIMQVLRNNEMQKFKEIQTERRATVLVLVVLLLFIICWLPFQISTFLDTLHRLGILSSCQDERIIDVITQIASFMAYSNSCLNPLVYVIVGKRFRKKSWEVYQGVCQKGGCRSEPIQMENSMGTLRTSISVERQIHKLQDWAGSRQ

D(4) dopamine receptor = target: T3, D(4) dopamine receptor (Homo sapiens, UniProt P21917); experiment: DRUGMATRIX: Dopamine D4.2 radioligand binding (ligand: [3H] Spiperone); assay type: cell membranes, CHO-K1, Membrane; details: cho-k1; Not Active = under 50% inhibition at 10 µM
T3 sequence (P21917 whole entry): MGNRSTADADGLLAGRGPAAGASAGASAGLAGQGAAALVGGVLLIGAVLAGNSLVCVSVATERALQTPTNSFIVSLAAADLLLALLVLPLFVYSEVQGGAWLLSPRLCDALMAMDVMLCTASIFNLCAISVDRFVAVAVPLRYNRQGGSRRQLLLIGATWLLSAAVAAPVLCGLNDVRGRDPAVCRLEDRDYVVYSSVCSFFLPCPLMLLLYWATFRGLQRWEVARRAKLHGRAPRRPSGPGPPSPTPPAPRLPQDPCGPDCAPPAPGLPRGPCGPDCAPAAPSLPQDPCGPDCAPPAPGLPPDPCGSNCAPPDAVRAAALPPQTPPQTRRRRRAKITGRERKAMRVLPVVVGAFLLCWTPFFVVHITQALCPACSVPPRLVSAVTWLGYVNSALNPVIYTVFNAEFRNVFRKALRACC

Cannabinoid receptor 1 = Cannabinoid receptor 1 (Homo sapiens, UniProt P21554); assay type: cell membranes, Chem-1, Membrane; details: chem-1; further: in other assays of this panel Not Active means under 50% inhibition at 10 µM
Cannabinoid receptor 1, sequence (P21554 whole entry): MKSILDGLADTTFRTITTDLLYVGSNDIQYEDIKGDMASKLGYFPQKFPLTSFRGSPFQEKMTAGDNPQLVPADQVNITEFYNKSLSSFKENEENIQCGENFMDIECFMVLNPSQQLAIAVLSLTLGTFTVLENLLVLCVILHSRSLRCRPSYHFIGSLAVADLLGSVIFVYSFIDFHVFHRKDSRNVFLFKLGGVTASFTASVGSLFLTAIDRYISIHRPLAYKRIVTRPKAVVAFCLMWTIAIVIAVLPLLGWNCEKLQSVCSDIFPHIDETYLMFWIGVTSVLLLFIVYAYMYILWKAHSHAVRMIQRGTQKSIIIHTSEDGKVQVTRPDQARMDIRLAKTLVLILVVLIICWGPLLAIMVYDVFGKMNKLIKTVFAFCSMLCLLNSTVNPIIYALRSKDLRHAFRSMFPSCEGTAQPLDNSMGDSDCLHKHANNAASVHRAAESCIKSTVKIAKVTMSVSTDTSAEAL

[4] = target: Kappa-type opioid receptor (Homo sapiens, UniProt P41145); experiment: DRUGMATRIX: Opiate kappa (OP2, KOP) radioligand binding (ligand: [3H] Diprenorphine); assay type: cell membranes, HEK293, Membrane; details: Not Active = under 50% inhibition at 10 µM
Kappa-type opioid receptor, sequence (P41145 whole entry): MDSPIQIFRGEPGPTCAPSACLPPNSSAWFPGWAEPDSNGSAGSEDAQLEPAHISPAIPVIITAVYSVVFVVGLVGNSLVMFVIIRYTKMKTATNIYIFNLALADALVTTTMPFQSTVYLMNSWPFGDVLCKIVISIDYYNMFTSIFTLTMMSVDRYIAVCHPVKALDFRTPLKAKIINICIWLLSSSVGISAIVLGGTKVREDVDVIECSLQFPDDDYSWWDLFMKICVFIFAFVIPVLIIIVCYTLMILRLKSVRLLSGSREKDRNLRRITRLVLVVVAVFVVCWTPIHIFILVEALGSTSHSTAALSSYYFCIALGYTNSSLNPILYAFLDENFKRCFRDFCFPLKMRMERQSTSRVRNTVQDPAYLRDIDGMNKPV

Structure (SMILES)	IC50 [1]	IC50 [2]	IC50 [3]	Ki [3]	IC50 (B2 bradykinin receptor)	IC50 (D(4) dopamine receptor)	IC50 (Cannabinoid receptor 1)	IC50 ([4]; hek293)	Ki [4]	IC50 ([4]; read-out: IC50)	IC50 ([3]; read-out: IC50)	Ki ([3]; read-out: Ki)
O=C(O)CCNC(=O)c1ccccc1 [BETAMIPRON]	Not Active	Not Active	Not Active	Not Active	Not Active	Not Active	Not Active	Not Active	–	–	–	–
CC(=O)Oc1ccc(C(c2ccc(OC(C)=O)cc2)c2ccccn2)cc1 [BISACODYL]	Not Active	Not Active	Not Active	Not Active	Not Active	Not Active	Not Active	–	975 nM	2440 nM	–	–
Cc1cc2c(OCC(CNC(C)(C)C)OC(=O)c3ccccc3)cccc2[nH]1 (centres undefined) [BOPINDOLOL]	Not Active	Not Active	Not Active	Not Active	Not Active	Not Active	Not Active	Not Active	–	–	–	–
Brc1c(NC2=NCCN2)ccc2nccnc12 [BRIMONIDINE]	Not Active	Not Active	Not Active	Not Active	Not Active	Not Active	Not Active	Not Active	–	–	–	–
CN(C)[C@@H]1C(O)=C(C(N)=O)C(=O)[C@@]2(O)C(O)=C3C(=O)c4c(O)ccc(Cl)c4[C@@](C)(O)[C@H]3C[C@@H]12 [CHLORTETRACYCLINE]	Not Active	Not Active	Not Active	Not Active	Not Active	Not Active	Not Active	Not Active	–	–	–	–
CN/C(=N\CCSCc1nc[nH]c1C)NC#N [CIMETIDINE]	Not Active	Not Active	Not Active	Not Active	Not Active	Not Active	Not Active	Not Active	–	–	–	–
COc1cc(N)c(Cl)cc1C(=O)NC1CCN(CCCOc2ccc(F)cc2)CC1OC (centres undefined) [CISAPRIDE]	Not Active	Not Active	–	–	Not Active	Not Active	Not Active	Not Active	–	–	177 nM	109 nM
CCC(=O)O[C@]1(C(=O)CCl)[C@@H](C)C[C@H]2[C@@H]3CCC4=CC(=O)C=C[C@]4(C)[C@@]3(F)[C@@H](O)C[C@@]21C [CLOBETASOL PROPIONATE]	Not Active	Not Active	Not Active	Not Active	Not Active	Not Active	Not Active	Not Active	–	–	–	–
O=C1CN=C(c2ccccc2Cl)c2cc([N+](=O)[O-])ccc2N1 [CLONAZEPAM]	Not Active	Not Active	Not Active	Not Active	Not Active	Not Active	Not Active	Not Active	–	–	–	–
Nc1ccn([C@@H]2O[C@H](CO)[C@@H](O)[C@@H]2O)c(=O)n1 [CYTARABINE]	Not Active	Not Active	Not Active	Not Active	Not Active	Not Active	Not Active	Not Active	–	–	–	–
C[C@@H]1C[C@H]2[C@@H]3CCC4=CC(=O)C=C[C@]4(C)[C@@]3(F)[C@@H](O)C[C@]2(C)[C@H]1C(=O)CO [DESOXIMETASONE]	Not Active	Not Active	Not Active	Not Active	Not Active	Not Active	Not Active	Not Active	–	–	–	–
